Measurements from PMC6009956, “Design, synthesis and biological activity of N^4-phenylsubstituted-7H-pyrrolo[2,3-d]pyrimidin-4-amines as dual inhibitors of aurora kinase A and epidermal growth factor receptor kinase” (Journal of Enzyme Inhibition and Medicinal Chemistry, 2017).
Read-outs that look alike come from different tables or passages of the source. Blank lines part the entries; values can stand above or below the molecule they belong to.

What was measured:
[1] = molecular target: T1, aurora A kinase (AURKA) (Homo sapiens, UniProt O14965); test: ADP-Glo kinase assay, Aurora A; format: biochemical
T1 construct: purchased BPS Bioscience (assay run externally by the vendor)
T1 sequence (O14965 1-403): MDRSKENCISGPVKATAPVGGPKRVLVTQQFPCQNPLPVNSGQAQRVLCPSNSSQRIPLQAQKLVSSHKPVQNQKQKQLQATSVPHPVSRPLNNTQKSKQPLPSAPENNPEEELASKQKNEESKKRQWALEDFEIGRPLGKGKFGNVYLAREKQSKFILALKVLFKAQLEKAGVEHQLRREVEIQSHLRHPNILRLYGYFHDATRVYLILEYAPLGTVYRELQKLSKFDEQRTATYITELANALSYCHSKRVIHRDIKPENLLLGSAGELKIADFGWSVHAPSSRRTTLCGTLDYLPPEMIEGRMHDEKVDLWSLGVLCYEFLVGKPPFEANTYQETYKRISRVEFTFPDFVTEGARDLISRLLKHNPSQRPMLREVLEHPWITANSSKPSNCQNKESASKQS

[2] = molecular target: EGFR (Homo sapiens, UniProt P00533); test: ADP-Glo kinase assay, EGFR; format: biochemical; parameters: purchased BPS Bioscience (assay run externally by the vendor)
Sequence of EGFR (P00533 25-1210): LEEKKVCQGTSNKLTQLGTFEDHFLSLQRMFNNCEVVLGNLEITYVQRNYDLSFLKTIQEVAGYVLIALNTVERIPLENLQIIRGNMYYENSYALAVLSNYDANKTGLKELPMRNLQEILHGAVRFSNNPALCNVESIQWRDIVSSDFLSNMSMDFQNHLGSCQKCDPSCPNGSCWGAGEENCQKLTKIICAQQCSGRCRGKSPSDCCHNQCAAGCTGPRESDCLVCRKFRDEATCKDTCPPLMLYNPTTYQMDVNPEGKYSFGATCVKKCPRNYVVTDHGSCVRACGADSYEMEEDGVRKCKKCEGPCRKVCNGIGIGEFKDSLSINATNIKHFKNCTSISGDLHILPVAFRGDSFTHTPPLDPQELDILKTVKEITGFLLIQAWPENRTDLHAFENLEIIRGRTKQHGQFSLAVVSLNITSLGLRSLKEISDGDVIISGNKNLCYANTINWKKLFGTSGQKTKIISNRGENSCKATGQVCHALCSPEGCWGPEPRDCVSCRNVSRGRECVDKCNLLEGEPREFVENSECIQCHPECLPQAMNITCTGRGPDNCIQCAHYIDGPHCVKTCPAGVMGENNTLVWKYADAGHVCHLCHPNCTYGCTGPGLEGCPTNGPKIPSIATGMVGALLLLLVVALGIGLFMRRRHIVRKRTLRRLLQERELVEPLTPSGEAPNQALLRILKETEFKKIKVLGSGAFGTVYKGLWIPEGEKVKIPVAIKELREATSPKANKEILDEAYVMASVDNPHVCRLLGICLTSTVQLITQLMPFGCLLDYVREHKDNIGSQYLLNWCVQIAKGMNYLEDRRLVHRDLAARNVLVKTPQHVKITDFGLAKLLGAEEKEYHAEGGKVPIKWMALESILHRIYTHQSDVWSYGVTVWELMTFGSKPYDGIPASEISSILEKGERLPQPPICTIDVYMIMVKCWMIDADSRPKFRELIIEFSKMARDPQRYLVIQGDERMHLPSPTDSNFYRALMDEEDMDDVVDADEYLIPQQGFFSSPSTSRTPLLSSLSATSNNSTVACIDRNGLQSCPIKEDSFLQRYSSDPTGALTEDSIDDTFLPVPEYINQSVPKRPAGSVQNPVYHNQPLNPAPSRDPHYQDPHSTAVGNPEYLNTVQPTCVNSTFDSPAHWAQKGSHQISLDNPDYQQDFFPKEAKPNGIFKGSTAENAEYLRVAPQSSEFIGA

[3] = 10 µM ATP, triplicate, read-out: AURKA IC50 ± SD
[4] = 10 µM ATP/0.2 mg/ml Kemptide, read-out: Aurora A IC50 (dose-response curve, supplement)
[5] = 10 µM ATP, triplicate, read-out: EGFR IC50 ± SD
[6] = 10 µM ATP/0.2 mg/ml Poly-Glu-Tyr, read-out: EGFR IC50 (dose-response curve, supplement)

- IC50 [1, 3]: 8.56 ± 1.74 µM
- IC50 [1, 4]: 8.5 µM
- Aurora A % Activity Set1 ([1]; Log[nM] 0): 95%
- Aurora A % Activity Set2 ([1]; Log[nM] 0): 97%
- Aurora A % Activity Set3 ([1]; Log[nM] 0): 102%
- Aurora A % Activity Set1 ([1]; Log[nM] 1.0): 102%
- Aurora A % Activity Set2 ([1]; Log[nM] 1.0): 103%
- Aurora A % Activity Set3 ([1]; Log[nM] 1.0): 102%
- Aurora A % Activity Set1 ([1]; Log[nM] 1.5): 105%
- Aurora A % Activity Set2 ([1]; Log[nM] 1.5): 105%
- Aurora A % Activity Set3 ([1]; Log[nM] 1.5): 107%
- Aurora A % Activity Set1 ([1]; Log[nM] 2.0): 98%
- Aurora A % Activity Set2 ([1]; Log[nM] 2.0): 107%
- Aurora A % Activity Set3 ([1]; Log[nM] 2.0): 109%
- Aurora A % Activity Set1 ([1]; Log[nM] 2.5): 103%
- Aurora A % Activity Set2 ([1]; Log[nM] 2.5): 103%
- Aurora A % Activity Set3 ([1]; Log[nM] 2.5): 107%
- Aurora A % Activity Set1 ([1]; Log[nM] 3.0): 92%
- Aurora A % Activity Set2 ([1]; Log[nM] 3.0): 102%
- Aurora A % Activity Set3 ([1]; Log[nM] 3.0): 98%
- Aurora A % Activity Set1 ([1]; Log[nM] 3.5): 66%
- Aurora A % Activity Set2 ([1]; Log[nM] 3.5): 73%
- Aurora A % Activity Set3 ([1]; Log[nM] 3.5): 70%
- Aurora A % Activity Set1 ([1]; Log[nM] 4.0): 44%
- Aurora A % Activity Set2 ([1]; Log[nM] 4.0): 48%
- Aurora A % Activity Set3 ([1]; Log[nM] 4.0): 48%
- Aurora A % Activity Set1 ([1]; Log[nM] 4.5): 18%
- Aurora A % Activity Set2 ([1]; Log[nM] 4.5): 18%
- Aurora A % Activity Set3 ([1]; Log[nM] 4.5): 19%
- Aurora A % Activity Set1 ([1]; Log[nM] 5.0): 11%
- Aurora A % Activity Set2 ([1]; Log[nM] 5.0): 11%
- Aurora A % Activity Set3 ([1]; Log[nM] 5.0): 11%
- IC50 [2, 5]: 1230 ± 201 nM
- IC50 [2, 6]: 1200 nM
- EGFR % Activity Set1 ([2]; Log[nM] 0): 97%
- EGFR % Activity Set2 ([2]; Log[nM] 0): 98%
- EGFR % Activity Set3 ([2]; Log[nM] 0): 121%
- EGFR % Activity Set1 ([2]; Log[nM] 1.0): 109%
- EGFR % Activity Set2 ([2]; Log[nM] 1.0): 101%
- EGFR % Activity Set3 ([2]; Log[nM] 1.0): 128%
- EGFR % Activity Set1 ([2]; Log[nM] 1.5): 113%
- EGFR % Activity Set2 ([2]; Log[nM] 1.5): 108%
- EGFR % Activity Set3 ([2]; Log[nM] 1.5): 122%
- EGFR % Activity Set1 ([2]; Log[nM] 2.0): 111%
- EGFR % Activity Set2 ([2]; Log[nM] 2.0): 102%
- EGFR % Activity Set3 ([2]; Log[nM] 2.0): 99%
- EGFR % Activity Set1 ([2]; Log[nM] 2.5): 77%
- EGFR % Activity Set2 ([2]; Log[nM] 2.5): 82%
- EGFR % Activity Set3 ([2]; Log[nM] 2.5): 84%
- EGFR % Activity Set1 ([2]; Log[nM] 3.0): 55%
- EGFR % Activity Set2 ([2]; Log[nM] 3.0): 59%
- EGFR % Activity Set3 ([2]; Log[nM] 3.0): 52%
- EGFR % Activity Set1 ([2]; Log[nM] 3.5): 20%
- EGFR % Activity Set2 ([2]; Log[nM] 3.5): 24%
- EGFR % Activity Set3 ([2]; Log[nM] 3.5): 23%
- EGFR % Activity Set1 ([2]; Log[nM] 4.0): 12%
- EGFR % Activity Set2 ([2]; Log[nM] 4.0): 12%
- EGFR % Activity Set3 ([2]; Log[nM] 4.0): 10%
- EGFR % Activity Set1 ([2]; Log[nM] 4.5): 4%
- EGFR % Activity Set2 ([2]; Log[nM] 4.5): 5%
- EGFR % Activity Set3 ([2]; Log[nM] 4.5): 4%
- EGFR % Activity Set1 ([2]; Log[nM] 5.0): 4%
- EGFR % Activity Set2 ([2]; Log[nM] 5.0): 3%
- EGFR % Activity Set3 ([2]; Log[nM] 5.0): 3%
Structure (SMILES): Cc1ccccc1Nc1ncnc2[nH]ccc12 [Compound 15, N^4-(2-methylphenyl)-7H-pyrrolo[2,3-d]pyrimidin-4-amine]

- Fold less potent than compound 2 against AURKA [1]: approximately two-fold
- IC50 [1, 3]: 4.54 ± 0.93 µM
- IC50 [1, 4]: 4.5 µM
- Aurora A % Activity Set1 ([1]; Log[nM] 0): 103%
- Aurora A % Activity Set2 ([1]; Log[nM] 0): 107%
- Aurora A % Activity Set3 ([1]; Log[nM] 0): 99%
- Aurora A % Activity Set1 ([1]; Log[nM] 1.0): 110%
- Aurora A % Activity Set2 ([1]; Log[nM] 1.0): 101%
- Aurora A % Activity Set3 ([1]; Log[nM] 1.0): 111%
- Aurora A % Activity Set1 ([1]; Log[nM] 1.5): 109%
- Aurora A % Activity Set2 ([1]; Log[nM] 1.5): 108%
- Aurora A % Activity Set3 ([1]; Log[nM] 1.5): 105%
- Aurora A % Activity Set1 ([1]; Log[nM] 2.0): 109%
- Aurora A % Activity Set2 ([1]; Log[nM] 2.0): 109%
- Aurora A % Activity Set3 ([1]; Log[nM] 2.0): 109%
- Aurora A % Activity Set1 ([1]; Log[nM] 2.5): 96%
- Aurora A % Activity Set2 ([1]; Log[nM] 2.5): 101%
- Aurora A % Activity Set3 ([1]; Log[nM] 2.5): 113%
- Aurora A % Activity Set1 ([1]; Log[nM] 3.0): 84%
- Aurora A % Activity Set2 ([1]; Log[nM] 3.0): 80%
- Aurora A % Activity Set3 ([1]; Log[nM] 3.0): 92%
- Aurora A % Activity Set1 ([1]; Log[nM] 3.5): 55%
- Aurora A % Activity Set2 ([1]; Log[nM] 3.5): 57%
- Aurora A % Activity Set3 ([1]; Log[nM] 3.5): 59%
- Aurora A % Activity Set1 ([1]; Log[nM] 4.0): 30%
- Aurora A % Activity Set2 ([1]; Log[nM] 4.0): 28%
- Aurora A % Activity Set3 ([1]; Log[nM] 4.0): 29%
- Aurora A % Activity Set1 ([1]; Log[nM] 4.5): 11%
- Aurora A % Activity Set2 ([1]; Log[nM] 4.5): 11%
- Aurora A % Activity Set3 ([1]; Log[nM] 4.5): 11%
- Aurora A % Activity Set1 ([1]; Log[nM] 5.0): 8%
- Aurora A % Activity Set2 ([1]; Log[nM] 5.0): 7%
- Aurora A % Activity Set3 ([1]; Log[nM] 5.0): 8%
- Fold less potent than compound 7 against EGFR [2]: 100 fold
- IC50 [2, 5]: 384 ± 65.5 nM
- IC50 [2, 6]: 357 nM
- EGFR % Activity Set1 ([2]; Log[nM] 0): 97%
- EGFR % Activity Set2 ([2]; Log[nM] 0): 99%
- EGFR % Activity Set3 ([2]; Log[nM] 0): 99%
- EGFR % Activity Set1 ([2]; Log[nM] 1.0): 95%
- EGFR % Activity Set2 ([2]; Log[nM] 1.0): 102%
- EGFR % Activity Set3 ([2]; Log[nM] 1.0): 91%
- EGFR % Activity Set1 ([2]; Log[nM] 1.5): 93%
- EGFR % Activity Set2 ([2]; Log[nM] 1.5): 102%
- EGFR % Activity Set3 ([2]; Log[nM] 1.5): 84%
- EGFR % Activity Set1 ([2]; Log[nM] 2.0): 80%
- EGFR % Activity Set2 ([2]; Log[nM] 2.0): 83%
- EGFR % Activity Set3 ([2]; Log[nM] 2.0): 82%
- EGFR % Activity Set1 ([2]; Log[nM] 2.5): 51%
- EGFR % Activity Set2 ([2]; Log[nM] 2.5): 49%
- EGFR % Activity Set3 ([2]; Log[nM] 2.5): 53%
- EGFR % Activity Set1 ([2]; Log[nM] 3.0): 26%
- EGFR % Activity Set2 ([2]; Log[nM] 3.0): 23%
- EGFR % Activity Set3 ([2]; Log[nM] 3.0): 27%
- EGFR % Activity Set1 ([2]; Log[nM] 3.5): 12%
- EGFR % Activity Set2 ([2]; Log[nM] 3.5): 9%
- EGFR % Activity Set3 ([2]; Log[nM] 3.5): 10%
- EGFR % Activity Set1 ([2]; Log[nM] 4.0): 4%
- EGFR % Activity Set2 ([2]; Log[nM] 4.0): 5%
- EGFR % Activity Set3 ([2]; Log[nM] 4.0): 4%
- EGFR % Activity Set1 ([2]; Log[nM] 4.5): 2%
- EGFR % Activity Set2 ([2]; Log[nM] 4.5): 3%
- EGFR % Activity Set3 ([2]; Log[nM] 4.5): 1%
- EGFR % Activity Set1 ([2]; Log[nM] 5.0): 1%
- EGFR % Activity Set2 ([2]; Log[nM] 5.0): 1%
- EGFR % Activity Set3 ([2]; Log[nM] 5.0): 2%
Structure (SMILES): Nc1nc(Nc2cccc(Br)c2)c2cc[nH]c2n1 [Compound 8, N^4-(3-bromophenyl)-7H-pyrrolo[2,3-d]pyrimidine-2,4-diamine]
